Measured values: PubChem BioAssay (NCI)
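Values below derive from 48-hour exposures of cells grown in 96-well plates, with endpoints linearly interpolated between the two concentrations bracketing the appropriate inhibition level. Definition used: TGI = concentration required for complete inhibition of growth.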

How the values were obtained:
Assay in all cases: NCI tumour cell line growth inhibition, 48 h
UACC-257 melanoma = system: UACC-257 melanoma
HS 578T breast = system: HS 578T breast
OVCAR-5 ovarian = system: OVCAR-5 ovarian
MDA-MB-435 = system: MDA-MB-435
NCI-H226 lung = system: NCI-H226 lung
HOP-62 NSCLC = system: HOP-62 NSCLC
SNB-19 CNS = system: SNB-19 CNS
RPMI-8226 leukemia = system: RPMI-8226 leukemia
SR leukemia = system: SR leukemia
BT-549 breast = system: BT-549 breast
OVCAR-4 ovarian = system: OVCAR-4 ovarian
SF-268 CNS = system: SF-268 CNS
KM12 colon = system: KM12 colon
ACHN renal = system: ACHN renal
MDA-MB-231 breast = system: MDA-MB-231 breast
HT29 colon = system: HT29 colon
UACC-62 melanoma = system: UACC-62 melanoma
SK-MEL-2 melanoma = system: SK-MEL-2 melanoma
SN12C renal = system: SN12C renal
CAKI-1 renal = system: CAKI-1 renal
MCF7 breast = system: MCF7 breast
DU-145 prostate = system: DU-145 prostate
T-47D breast = system: T-47D breast
NCI-H23 lung = system: NCI-H23 lung
HCT-15 colon = system: HCT-15 colon
MALME-3M melanoma = system: MALME-3M melanoma
SK-MEL-28 melanoma = system: SK-MEL-28 melanoma
UO-31 renal = system: UO-31 renal
SW-620 colon = system: SW-620 colon
SF-295 CNS = system: SF-295 CNS
SK-OV-3 ovarian = system: SK-OV-3 ovarian
OVCAR-3 ovarian = system: OVCAR-3 ovarian
EKVX NSCLC = system: EKVX NSCLC
NCI-H522 lung = system: NCI-H522 lung
NCI-H460 lung = system: NCI-H460 lung
RXF 393 renal = system: RXF 393 renal
A498 renal = system: A498 renal
NCI/ADR-RES ovarian = system: NCI/ADR-RES ovarian
TK-10 renal = system: TK-10 renal
M14 melanoma = system: M14 melanoma
CCRF-CEM leukemia = system: CCRF-CEM leukemia
U251 CNS = system: U251 CNS
IGROV1 ovarian = system: IGROV1 ovarian
HOP-92 NSCLC = system: HOP-92 NSCLC
HCT-116 colon = system: HCT-116 colon
HL-60(TB) leukemia = system: HL-60(TB) leukemia
K-562 leukemia = system: K-562 leukemia
786-0 renal = system: 786-0 renal
OVCAR-8 ovarian = system: OVCAR-8 ovarian
MOLT-4 leukemia = system: MOLT-4 leukemia
HCC-2998 colon = system: HCC-2998 colon
LOX IMVI melanoma = system: LOX IMVI melanoma
SF-539 CNS = system: SF-539 CNS
A549 NSCLC = system: A549 NSCLC
SNB-75 CNS = system: SNB-75 CNS
COLO 205 colon = system: COLO 205 colon
SK-MEL-5 melanoma = system: SK-MEL-5 melanoma
MDA-N = system: MDA-N
PC-3 prostate = system: PC-3 prostate

Measured: TGI

O=C(O)c1ccc(C(=O)Nc2cccc3ccccc23)c(C(=O)O)c1
> 100 µM: all assays above

CC1(C)OCC(C2OC3OC(C)(C)OC3C2N)O1 (stereo unspecified)
> 100 µM: all assays above

CCCCCC(=O)Nc1n[nH]nc1C#N
> 100 µM: all assays above

CCCCCCCCCCc1c2nc(c(CCCCCCCCCC)c3ccc([nH]3)c(CCCCCCCCCC)c3ccc([nH]3)c(CCCCCCCCCC)c3nc1C=C3)C=C2
> 100 µM: all assays above
